Measurements taken from ChEMBL document CHEMBL1159269, “Mechanistic evaluation of new plant-derived compounds that inhibit HIV-1 reverse transcriptase” (J Nat Prod, 1995).
pIC50, pKi: −log10 of the molar value.

Tests used:
[1] = target: T1, Human immunodeficiency virus type 1 reverse transcriptase (Human immunodeficiency virus 1, UniProt Q72547); assay: Inhibition of HIV1 reverse transcriptase p66/p51
DNA polymerase beta = DNA polymerase beta (Homo sapiens, UniProt P06746); assay: Inhibition of DNA polymerase beta
[2] = Inhibition of HIV2 reverse transcriptase p66/p51; parameters: species or system Human immunodeficiency virus 2
[3] = Inhibition of AMV reverse transcriptase; parameters: species or system Avian myeloblastosis virus
[4] = Inhibition of RNA polymerase
KB = assay: Cytotoxicity against human KB cells; type: functional; conditions: read-out: ED50 (the source's name)
Lu1 = assay: Cytotoxicity against human Lu1 cells; type: functional; conditions: read-out: ED50 (the source's name)
LNCaP = assay: Cytotoxicity against human LNCAP cells; type: functional; conditions: read-out: ED50 (the source's name)
ZR-75-1 = assay: Cytotoxicity against human ZR-75-1 cells; type: functional; conditions: read-out: ED50 (the source's name)
DNA = assay: Binding affinity to calf thymus DNA assessed as inhibition of DNA peak at 260 nm wavelength at 250 ug/ml by HPLC; type: nucleic-acid assay; conditions: Bos taurus
[5] = target: Human immunodeficiency virus type 1 reverse transcriptase (Human immunodeficiency virus 1) (UniProt Q72547); assay: Inhibition of HIV1 reverse transcriptase p66/p51 at 50 ug/ml in presence of 2.5 ug/ml BSA
[6] = target: Human immunodeficiency virus type 1 reverse transcriptase (Human immunodeficiency virus 1) (UniProt Q72547); assay: Inhibition of HIV1 reverse transcriptase p66/p51 at 50 ug/ml in presence of 250 ug/ml BSA
[7] = target: Human immunodeficiency virus type 1 reverse transcriptase (Human immunodeficiency virus 1) (UniProt Q72547); assay: Inhibition of HIV1 reverse transcriptase p66/p51 at 50 ug/ml in presence of 1000 ug/ml BSA
[8] = target: T1, Human immunodeficiency virus type 1 reverse transcriptase; assay: Inhibition of HIV1 reverse transcriptase p66/p51 using template-primer [oligo(dT)12-18 + poly(rA)] by mixed type competitive inhibition assay
[9] = target: T1, Human immunodeficiency virus type 1 reverse transcriptase; assay: Inhibition of HIV1 reverse transcriptase p66/p51 using TTP substrate by non-competitive inhibition type assay
[10] = target: T1, Human immunodeficiency virus type 1 reverse transcriptase; assay: Inhibition of HIV1 reverse transcriptase p66/p51 using template-primer [oligo(dT)12-18 + poly(rA)] by competitive type inhibition assay
[11] = target: T1, Human immunodeficiency virus type 1 reverse transcriptase; assay: Inhibition of HIV1 reverse transcriptase p66/p51 using TTP substrate by mixed type competitive inhibition assay
[12] = target: Human immunodeficiency virus type 1 reverse transcriptase (Human immunodeficiency virus 1) (UniProt Q72547); assay: Inhibition of HIV1 reverse transcriptase p66/p51 at 200 ug/ml in presence of 250 ug/ml BSA
[13] = target: Human immunodeficiency virus type 1 reverse transcriptase (Human immunodeficiency virus 1) (UniProt Q72547); assay: Inhibition of HIV1 reverse transcriptase p66/p51 at 200 ug/ml in presence of 1000 ug/ml BSA

Row | SMILES | pIC50 [1] | pIC50 (DNA polymerase beta) | pIC50 [2] | pIC50 [3] | pIC50 [4] | EC50 (KB) | EC50 (Lu1) | EC50 (LNCaP) | EC50 (ZR-75-1) | inhibition (DNA) | inhibition [5] | inhibition [6] | inhibition [7] | pKi [8] | pKi [9] | pKi [10] | pKi [11] | inhibition [12] | inhibition [13]
1 | CC1=C(C#C/C(C)=C/C=C/C(C)=C/C=C/C=C(C)/C=C/C=C(\C)C(=O)C[C@@]23O[C@]2(C)C[C@@H](O)CC3(C)C)C(C)(C)C[C@H](O)C1 [HALOCYNTHIAXANTHIN] | 5.14 |  |  |  |  |  |  |  |  |  |  |  |  |  |  |  |  |  | 
2 | Cc1cn([C@H]2C[C@H](N=[N+]=[N-])[C@@H](CO)O2)c(=O)[nH]c1=O [ZIDOVUDINE] |  | < 4.70 | 6.70 | 6.37 | < 4.70 |  |  |  |  |  |  |  |  |  |  |  |  |  | 
3 | C=C1C(=O)O[C@@H](CCCCCCCCCCCCC)[C@@H]1C(=O)O [PROTOLICHESTERINIC ACID] | 4.61 | 5.13 | 4.53 | 4.66 | 4.03 | > 20 mg/L | > 20 mg/L | > 20 mg/L | > 20 mg/L | 1.3% | 99% | 52% | 19% | 5.00 | 5.15 |  |  |  | 
4 | COc1cc(O)c2c(=O)c3c(O)c(-c4c(O)c([C@@H]5O[C@H](CO)[C@@H](O)[C@H](O)[C@H]5O)c(O)c5c(=O)cc(-c6ccc(O)c(O)c6)oc45)cc(O)c3oc2c1 | 4.37 | 4.24 | 4.25 | 4.09 | 3.57 | > 20 mg/L | > 20 mg/L | > 20 mg/L | > 20 mg/L | 71% |  |  |  |  |  | 5.17 | 5.15 | 89% | 82%
5 | CCCc1cc(=O)oc2c3c(c4c(c12)OC(C)(C)C=C4)O[C@H](C)[C@@H](C)[C@@H]3O [CALANOLIDE A] | 6.00 |  |  |  |  |  |  |  |  |  |  |  |  |  |  |  |  |  | 
6 | COc1cc2c(ccc3c4cc(OC)c(OC)cc4c[n+](C)c23)cc1O |  |  |  |  |  |  |  |  |  | 100% |  |  |  |  |  |  |  |  | 
7 | CC1(C)CC[C@]2(C(=O)O)CC=C3[C@]4(C)CC[C@H]5C(C)(C)[C@@H](OC(=O)c6ccc(O)cc6)C[C@@H](O)[C@]5(C)[C@H]4CC[C@@]3(C)[C@H]2C1 |  | 5.66 | 4.23 | 4.82 | < 3.47 | > 20 mg/L | > 20 mg/L | > 20 mg/L | > 20 mg/L | 0% | 94% | 19% | 0.8% | 5.17 | 5.08 |  |  |  | 
